Read-outs that look alike come from different tables or passages of the source.
Experiments:
p38α MAPK = p38α MAPK (Homo sapiens, UniProt Q16539); test: Dundee protein kinase screen; format: biochemical; settings: read-out: %Remaining activity at 1µM NU6300
Procedure, shortened: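 Selectivity panel of 131 protein kinases, inhibitor tested at a single concentration of 1 µM; values are % kinase activity remaining, mean of duplicates. Re-test of selected kinases used 0.5 µM in the standard format and again after a 4 hour pre-incubation with the inhibitor.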

AMPK (hum) = test: Dundee kinase screen re-test (standard format and 4 hour pre-incubation); format: biochemical, human
Experimental: (§1) Prior to determining its cellular activity, we carried out a screen to assess its selectivity against a panel of 131 protein kinases under conditions that would not distinguish between a reversible or irreversible mode of action. […] These 13 kinases and 29 additional kinases, selected for their known sensitivity to other inhibitors within the purine series, were then tested in a modified screening format in which the assay was repeated following a 4-hr pre-incubation (Table S3B). […] However, conformational flexibility around the active site may promote such an interaction with a residue from another part of the structure ([Martin et al., 2012]).
(§2) Table S3, Related to Figure 4. NCL-0006300 protein kinase selectivity. […]
(§3) Dundee protein kinase screen (Bain et al., 2007). […]
(§4) (B) Selected kinases were re-tested in the Dundee kinase screen against NU6300 at a single concentration of 0.5 µM both in the standard assay format and following a 4 hour pre-incubation in the presence of NU6300. Kinases which have very low activity after the 4 hour incubation so that results might not be wholly reliable are boxed in salmon. Kinases where the activity after a 4 hour pre-incubation is < 50% that in the standard assay format are highlighted in red.

MLK3 = MLK3 (Homo sapiens, UniProt Q16584); test: as above; format: biochemical; settings: MLK3, 0.5µM
Chain of MLK3 (Q16584 whole entry): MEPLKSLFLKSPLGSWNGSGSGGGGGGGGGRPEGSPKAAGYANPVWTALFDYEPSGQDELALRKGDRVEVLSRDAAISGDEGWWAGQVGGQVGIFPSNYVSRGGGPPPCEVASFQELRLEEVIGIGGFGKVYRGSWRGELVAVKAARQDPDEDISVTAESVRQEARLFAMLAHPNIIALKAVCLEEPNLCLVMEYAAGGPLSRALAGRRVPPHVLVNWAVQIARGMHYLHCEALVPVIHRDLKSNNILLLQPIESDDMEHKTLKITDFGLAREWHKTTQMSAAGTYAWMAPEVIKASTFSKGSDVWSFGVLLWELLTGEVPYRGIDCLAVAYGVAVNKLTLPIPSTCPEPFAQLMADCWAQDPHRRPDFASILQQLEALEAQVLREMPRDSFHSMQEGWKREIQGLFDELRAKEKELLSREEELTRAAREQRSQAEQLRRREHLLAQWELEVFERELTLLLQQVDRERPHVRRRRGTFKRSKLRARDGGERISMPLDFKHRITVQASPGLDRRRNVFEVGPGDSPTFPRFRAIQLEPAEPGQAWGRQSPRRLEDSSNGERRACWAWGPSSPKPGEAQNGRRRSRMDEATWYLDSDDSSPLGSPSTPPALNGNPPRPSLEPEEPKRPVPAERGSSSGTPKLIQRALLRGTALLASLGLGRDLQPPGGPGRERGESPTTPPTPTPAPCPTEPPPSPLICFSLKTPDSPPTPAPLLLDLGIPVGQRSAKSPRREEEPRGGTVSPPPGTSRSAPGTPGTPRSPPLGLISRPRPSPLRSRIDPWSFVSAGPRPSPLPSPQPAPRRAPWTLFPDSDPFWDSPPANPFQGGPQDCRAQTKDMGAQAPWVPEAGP
Experimental: as §1, §2, §3, §4

BTK = BTK (Homo sapiens, UniProt Q06187); test: as above; format: biochemical
Chain of BTK (Q06187 whole entry): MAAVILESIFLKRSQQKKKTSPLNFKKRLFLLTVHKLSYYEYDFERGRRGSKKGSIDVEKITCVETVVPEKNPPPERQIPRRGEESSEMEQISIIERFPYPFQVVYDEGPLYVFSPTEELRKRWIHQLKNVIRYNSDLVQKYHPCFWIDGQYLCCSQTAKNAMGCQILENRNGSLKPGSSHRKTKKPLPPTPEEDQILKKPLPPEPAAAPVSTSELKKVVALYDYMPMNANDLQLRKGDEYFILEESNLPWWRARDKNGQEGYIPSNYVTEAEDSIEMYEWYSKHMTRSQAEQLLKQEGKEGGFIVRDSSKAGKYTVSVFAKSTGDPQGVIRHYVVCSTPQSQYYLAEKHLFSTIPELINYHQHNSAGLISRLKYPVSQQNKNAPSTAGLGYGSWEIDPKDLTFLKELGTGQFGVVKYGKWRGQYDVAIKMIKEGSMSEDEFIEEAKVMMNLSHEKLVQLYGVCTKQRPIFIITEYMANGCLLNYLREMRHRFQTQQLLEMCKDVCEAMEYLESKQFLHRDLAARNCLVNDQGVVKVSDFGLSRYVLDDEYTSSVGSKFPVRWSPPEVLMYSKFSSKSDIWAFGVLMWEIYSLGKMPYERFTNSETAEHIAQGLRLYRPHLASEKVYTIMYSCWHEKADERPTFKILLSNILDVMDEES
Experimental: as §1, §2, §3, §4

CDK2^K88E/cyclin A = molecular target: T1, CDK2^K88E/cyclin A (Homo sapiens, UniProt P24941, K88E); test: Bandshift kinase assay after incubation and dialysis, mutant; format: biochemical
T1 construct: GST (N, cleaved yes); made in house; host or cells: Escherichia coli; phosphorylated in vitro by GST-CAK
Experimental: The bandshift experiment was repeated after incubating CDK2^K88E/cyclin A and CDK2^K89V/cyclin A with NU6300, NU6310, or DMSO followed by dialysis to remove unbound inhibitor (Figure S2G).
Figure S2, Related to Figure 3. Identification of the site of CDK2 modification by NU6300. (A-G) Single site CDK2 mutants CDK2D86A, CDK2K88E, and CDK2K89V identify the site of CDK2 modification by NU6300. These mutations change the CDK2 sequence to that of CDK7 and are known not to disrupt the CDK2 fold. Mass spectra of CDK2 mutants: […]
(G) Protein kinase activity of authentic CDK2 and single site CDK2 mutants following incubation with NU6300 or NU6310. Samples were taken at the indicated number of minutes after initiation of the reaction. Note that compared to authentic CDK2, the single site Lys88 and Lys89 mutants have a slower rate of reaction (Compare LHS panels). This drop in activity was expected because whereas the wild type protein was produced by co-expression with S. cerevisiae […]
the mutant proteins were activated by S. cerevisiae CAK1 phosphorylation in vitro– a relatively inefficient process as judged from the results of ESI-MS (Table S1). (H) NU6300 […]
NU6300 carbon atoms are coloured green. Rb, retinoblastoma protein, Phospho-Rb, […]
Protein expression and purification
Site-directed mutagenesis of CDK2 was performed using the QuikChange II kit (Stratagene) following the manufacturer’s instructions and verified by DNA sequencing.
Wild-type CDK2 phosphorylated at Thr160, untagged human cyclin A2 (residues 174-432), S. cerevisiae GST–CAK, GST–3C-protease and GST–pRb (residues 792–928) were expressed and purified as previously described (Brown et al., 1999a; Brown et al., 1999b; Welburn and Endicott, 2005). […]
CDK2/cyclin A (200 µM) was incubated overnight with 1 mM inhibitor or DMSO, and then dialysed for 8 h with regular replacement of dialysis buffer into HEPES-buffered saline (50 mM HEPES, pH 7.5, 250 mM NaCl, 0.02% MTG). […] Reactions were stopped by addition of SDS-PAGE loading buffer and analyzed by SDS-PAGE. […]

[1] = 4hr RT preincubation, read-out: %Remaining activity at 0.5µM NU6300 - 4hr RT preincubation
[2] = usual format, read-out: %Remaining activity at 0.5µM NU6300 - Usual assay format

Chain of p38α MAPK (Q16539 whole entry): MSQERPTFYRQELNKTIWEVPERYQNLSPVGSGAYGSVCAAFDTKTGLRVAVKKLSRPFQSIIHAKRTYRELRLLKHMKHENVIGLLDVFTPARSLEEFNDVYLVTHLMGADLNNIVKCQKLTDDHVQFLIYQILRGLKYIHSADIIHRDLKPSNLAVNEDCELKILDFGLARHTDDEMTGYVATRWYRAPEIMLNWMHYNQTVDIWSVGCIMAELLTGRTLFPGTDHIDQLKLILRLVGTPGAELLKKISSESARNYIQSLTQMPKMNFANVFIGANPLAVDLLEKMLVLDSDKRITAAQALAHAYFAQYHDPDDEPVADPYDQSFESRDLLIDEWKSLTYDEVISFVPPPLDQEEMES

SMILES: C=CS(=O)(=O)c1ccc(Nc2nc(OCC3CCCCC3)c3nc[nH]c3n2)cc1 [NU6300, 6-(cyclohexylmethoxy)-N-(4-(vinylsulfonyl)phenyl)-9H-purin-2-amine]
- remaining activity at 1 µM (p38α MAPK): 81%
- %Remaining activity at 0.5µM NU6300 - 4hr RT preincubation (AMPK (hum); 4hr RT preincubation): 73%
- %Remaining activity at 0.5µM NU6300 - Usual assay format (AMPK (hum); usual format): 70%
- remaining activity at 0.5 µM (MLK3; [1]): 52%
- remaining activity at 0.5 µM (MLK3; [2]): 5%
- remaining activity at 0.5 µM (BTK; [1]): 28%
- remaining activity at 0.5 µM (BTK; [2]): 18%

SMILES: CCS(=O)(=O)c1ccc(Nc2nc(OCC3CCCCC3)c3nc[nH]c3n2)cc1 [NU6310, 6-(cyclohexylmethoxy)-N-(4-(ethylsulfonyl)phenyl)-9H-purin-2-amine]
- CDK2 activity against Rb after incubation with inhibitor and dialysis (CDK2^K88E/cyclin A): recovered their activity
